Laboratory results published in ChEMBL document CHEMBL1141972, “4'C-ethynyl-thymidine acts as a chain terminator during DNA-synthesis catalyzed by HIV-1 reverse transcriptase” (Bioorg Med Chem Lett, 2005).

Target: Human immunodeficiency virus type 1 reverse transcriptase (Human immunodeficiency virus 1, UniProt Q72547)
Experiment: Inhibitory concentration against human immunodeficiency virus type 1 reverse transcriptase

Row | IC50 | SMILES
1 | 3.28 µM | C#C[C@]1(COP(=O)(O)OP(=O)(O)OP(=O)(O)O)O[C@@H](n2cc(C)c(=O)[nH]c2=O)C[C@@H]1O
2 | 2.1 µM | Cc1cn([C@H]2C[C@H](N=[N+]=[N-])[C@@H](CO[P@](=O)(O)O[P@](=O)(O)OP(=O)(O)O)O2)c(=O)[nH]c1=O [ZIDOVUDINE TRIPHOSPHATE]
